IC50 data for 1 compound are collected here from US6627647B1, “Substituted 1-(4-aminophenyl)imidazoles and their use as anti-inflammatory agents” (Boehringer Ingelheim Pharmaceuticals, Inc., priority 2000, dated 2003).

This experiment concerns IL-2 promoter/enhancer. The experiment is described as follows: IL-2 promoter assay (luciferase reporter in J.1F/C6 Jurkat cells). It is filed as cell-based. To be noted: Homo sapiens; J.1F/C6 Jurkat cell line, induction with ionomycin and PMA; read-out: IC50, inhibition of luciferase activity in IL-2 promoter assay. From the text: The IL-2 promoter assay measures transcriptional activation of a luciferase reporter gene which has been placed under control of the IL-2 promoter/enhancer. All the known regulatory features of the IL-2 gene are contained within a ˜300 bp sequence immediately upstream of the open reading frame. The region −328 to +35 relative to the transcription start site of the IL-2 gene is obtained by […] of human genomic DNA and is subcloned into the promoterless luciferase reporter vector pGL2-Basic (Promega). The resulting construct, pIL2P-luc, and a vector containing a neomycin resistance gene, pcDNA/Neo (Invitrogen), are linearized and stably transfected into Jurkat cells (a human T-cell line) by electroporation.
For screening compounds, the cells are pelleted by centrifugation, washed once with PBS, resuspended in RPMI (phenol red-free) containing 5% FBS, and dispensed into 96-well, white microtiter plates (Packard) at 50,000 cells/well. The cells are pre-incubated with compounds (1 μg/ml) for 15 min prior to addition of ionomycin (1 μg/ml) and PMA (10 ng/ml) in a final volume of 100 μl. Following a 5 hr incubation at 37° C. in a humidified incubator, 100 μl of Luc-Lite lysis buffer/luciferase assay buffer (Promega) is added and luminescence measured using a Packard TopCount scintillation counter/luminometer.

Structures are written as SMILES.

For `C=CC[C@@H]1/C=C(\C)C[C@H](C)C[C@H](OC)[C@H]2O[C@@](O)(C(=O)C(=O)N3CCCC[C@H]3C(=O)O[C@H](/C(C)=C/[C@@H]3CC[C@@H](O)[C@H](OC)C3)[C@H](C)[C@@H](O)CC1=O)[C@H](C)C[C@@H]2OC` [FK506], the half-inhibitory concentration (IC50) came out at 300 pM.
